Data taken from patent publication US8999664B2, “Method of improving salmon meat color” (JX Nippon Oil & Energy Corporation, priority 2006, dated 2015).

What was measured:
Type in all cases: in vivo
[1] = tested on: Atlantic salmons (Salmo salar); assay: Cultivation of Atlantic salmon with carotenoid feed: fish weight and flesh color by spectrometer
From the text: The flesh color of a landed salmon can be quantified with the L*a*b* color system by measuring the color using a spectrometer. L* represents the luminance, a* represents the chroma red, and b* represents chroma yellow. A higher value of a*/b* represents a color more reddish than orangish, and a lower value of a*/b* represents a color more orangish than reddish. […] 400 Atlantic salmons (Salmo salar) each weighing about 300 g were cultivated as a test division of being fed with the above-described fermented product, and another 400 Atlantic salmons each weighing about 300 g were cultivated as a test division of being fed with the above-described synthetic product. The salmons were fed in satiation in a marine fish pen for 12 months. After the 12 months of cultivating, 20 fish of each test division were landed and weighed. […] The fish were immediately killed by cutting medulla, and the fish flesh was measured in terms of the color tone by a spectrometer. […] After the measurement, the fish flesh was frozen for preservation for 1 month. After being thawed, the fish flesh of the 20 fish of each test division was analyzed in terms of the content of each carotenoid compound.

[2] = tested on: king salmons (Oncorhynchus tshawytscha); assay: Cultivation of king salmon with carotenoid feed: fish weight and flesh color by spectrometer
From the text: The flesh color of a landed salmon can be quantified with the L*a*b* color system by measuring the color using a spectrometer. L* represents the luminance, a* represents the chroma red, and b* represents chroma yellow. A higher value of a*/b* represents a color more reddish than orangish, and a lower value of a*/b* represents a color more orangish than reddish. […] 100 king salmons (Oncorhynchus tshawytscha) each weighing about 200 g were cultivated as a test division of being fed with the above-described fermented product, and another 100 king salmons each weighing about 200 g were cultivated as a test division of being fed with the above-described synthetic product. The salmons were fed in satiation in a marine fish pen for 3 months. After the 3 months of cultivating, 15 fish of each test division were sampled and weighed. […] The fish were immediately killed by cutting medulla. […] After the measurement, the fish flesh was frozen for preservation for 1 month. After being thawed, the fish flesh of the fish of each test division was analyzed in terms of the content of each carotenoid compound.

[3] = tested on: silver salmons (Oncorhynchus kisutch); assay: Cultivation of silver salmon with carotenoid feed: fish weight and flesh color by spectrometer
From the text: The flesh color of a landed salmon can be quantified with the L*a*b* color system by measuring the color using a spectrometer. L* represents the luminance, a* represents the chroma red, and b* represents chroma yellow. A higher value of a*/b* represents a color more reddish than orangish, and a lower value of a*/b* represents a color more orangish than reddish. […] 300 silver salmons (Oncorhynchus kisutch) each weighing about 200 g were cultivated as a test division of being fed with the above-described fermented product, and another 300 silver salmons each weighing about 200 g were cultivated as a test division of being fed with the above-described synthetic product. The salmons were fed in satiation in a marine fish pen for 6 months. After the 6 months of cultivating, 10 fish of each test division were weighed. […] The fish were immediately killed by cutting medulla and frozen for preservation. After being thawed, the fish flesh was milled by a coffee mill, and a part thereof was put into a polyethylene bag to measure the color tone thereof by a spectrometer CM-508i (Minolta). […] From a part of the milled fish flesh, the carotenoid colorant was extracted, and analyzed in terms of the content of each carotenoid compound by HPLC.

[4] = tested on: rainbow trouts (Oncorhynchus mykiss); assay: Cultivation of rainbow trout with carotenoid feed: fish weight and flesh color by spectrometer
From the text: The flesh color of a landed salmon can be quantified with the L*a*b* color system by measuring the color using a spectrometer. L* represents the luminance, a* represents the chroma red, and b* represents chroma yellow. A higher value of a*/b* represents a color more reddish than orangish, and a lower value of a*/b* represents a color more orangish than reddish. […] 50 rainbow trouts (Oncorhynchus mykiss) each weighing about 100 g were cultivated in a water tank as a test division of being fed with the above-described fermented product, and another 50 rainbow trouts each weighing about 100 g were cultivated in a water tank as a test division of being fed with the above-described synthetic product. The trouts of each test division were fed in satiation in fresh water for 3 months. After the 3 months of cultivating, 12 fish of each test division were weighed. […] The fish were immediately killed by cutting medulla. […] After the measurement, the fish flesh was frozen for preservation. After being thawed, the fish flesh of the 12 fish of each test division was analyzed in terms of the content of each carotenoid compound.

[5] = flesh color tone by spectrometer, 12 months, average of 20 fish
[6] = flesh color by spectrometer, 3 months, average of 15 fish
[7] = milled thawed fish flesh, spectrometer CM-508i, 6 months, average of 10 fish
[8] = flesh color by spectrometer, 3 months, average of 12 fish

CC1=C(/C=C/C(C)=C/C=C/C(C)=C/C=C/C=C(C)/C=C/C=C(C)/C=C/C2=C(C)C(=O)[C@@H](O)CC2(C)C)C(C)(C)C[C@H](O)C1=O [Synthetic product, astaxanthin]
Fish flesh color exhibited ([1]; 12 months of cultivating): reddish orange color with a high level of chroma red | L* value (luminance) [1, 5]: 50.0 | a* value (chroma red) [1, 5]: 26.2 | a*/b* [1, 5]: 0.94 | b* value (chroma yellow) [1, 5]: 27.9 | Fish flesh color exhibited ([2]; 3 months of cultivating): reddish orange color close to a red color | L* value (luminance) [2, 6]: 50.8 | a* value (chroma red) [2, 6]: 23.7 | a*/b* [2, 6]: 0.93 | b* value (chroma yellow) [2, 6]: 25.5 | Fish flesh color exhibited ([3]; 6 months of cultivating): unnatural red color | L* value (luminance) [3, 7]: 55.6 | a* value (chroma red) [3, 7]: 26.0 | b* value (chroma yellow) [3, 7]: 26.2 | a*/b* ([3]; milled thawed fish flesh, spectrometer, 6 months, average of 10 fish): 0.99 | Fish flesh color exhibited ([4]; 3 months of cultivating): reddish orange color close to a red color | L* value (luminance) [4, 8]: 41.8 | a* value (chroma red) [4, 8]: 9.1 | a*/b* [4, 8]: 0.66 | b* value (chroma yellow) [4, 8]: 13.8
